# Measurements published in patent publication US4495179A, “A51568 Antibiotic and process for producing thereof” (Eli Lilly and Company, priority 1983, dated 1985).
# How the values were obtained:
# Format in all cases: cell-based
# [1] = tested on: Fusobacterium necrophorum; test: Agar-dilution MIC, anaerobic bacteria (Table 10); details: Fusobacterium necrophorum 6054A
# Bacteroides fragilis = test: Agar-dilution MIC, anaerobic bacteria (Table 10)
# [2] = tested on: Bacteroides melaninogenicus; test: Agar-dilution MIC, anaerobic bacteria (Table 10)
# [3] = tested on: Peptostreptococcus anaerobius; test: Agar-dilution MIC, anaerobic bacteria (Table 10); details: Peptostreptococcus anaerobius 1428
# [4] = tested on: Staphylococcus epidermidis; test: Agar-dilution MIC, variety of bacteria (Table 8)
# Experimental: (§1) The activity of antibiotic A51568 against a variety of bacteria, as determined by the agar-dilution method, is reported in Table 8, which follows, wherein the minimum inhibitory concentration (MIC) values are recorded.
# Staphylococcus aureus = test: Agar-dilution MIC, variety of bacteria (Table 8)
# Experimental: as §1
# [5] = tested on: Streptococcus sp. Group D; test: Agar-dilution MIC, variety of bacteria (Table 8)
# Experimental: as §1
# Streptococcus pyogenes = test: Agar-dilution MIC, variety of bacteria (Table 8)
# Experimental: as §1
# [6] = tested on: Haemophilus parainfluenzae; test: Agar-dilution MIC, variety of bacteria (Table 8)
# Experimental: as §1
# Haemophilus influenzae = test: Agar-dilution MIC, variety of bacteria (Table 8)
# Experimental: as §1
# Streptococcus pneumoniae = test: Agar-dilution MIC, variety of bacteria (Table 8)
# Experimental: as §1
# [7] = tested on: Streptococcus sp. Group B; test: Agar-dilution MIC, variety of bacteria (Table 8)
# Experimental: as §1
# Fusobacterium symbiosum = test: Agar-dilution MIC, anaerobic bacteria (Table 10); details: Fusobacterium symbiosum 1470
# Clostridium difficile [8] = test: Agar-dilution MIC, anaerobic bacteria (Table 10); details: Clostridium difficile 2994
# Description: (§2) Antibiotic A51568 has been tested and found to be active against a number of anaerobic bacteria, as recorded in Table 10, which follows, the MIC values having been determined by the agar-dilution method.
# Clostridium septicum = test: Agar-dilution MIC, anaerobic bacteria (Table 10); details: Clostridium septicum 1128
# Description: as §2
# [9] = tested on: Peptococcus asaccharolyticus; test: Agar-dilution MIC, anaerobic bacteria (Table 10); details: Peptococcus asaccharolyticus 1302
# Clostridium difficile [10] = test: Agar-dilution MIC, Clostridium difficile strains (Table 11); details: Clostridium difficile 78
# Description: Antibiotic A51568 is also active against a number of strains of Clostridium difficile, as determined by the agar-dilution method.
structure (smiles),measurement,setting,value
"CC(C)C[C@@H](N)C(=O)N[C@@H]1C(=O)N[C@@H](CC(N)=O)C(=O)N[C@H]2C(=O)N[C@H]3C(=O)N[C@H](C(=O)N[C@H](C(=O)O)c4cc(O)cc(O)c4-c4cc3ccc4O)[C@H](O)c3ccc(c(Cl)c3)Oc3cc2cc(c3O[C@@H]2O[C@H](CO)[C@@H](O)[C@H](O)[C@H]2O[C@H]2C[C@](C)(N)C(O)[C@H](C)O2)Oc2ccc(cc2Cl)[C@H]1O (stereo partly shown) [A51568, demethylvancomycin]",MIC,[1],2 µg/mL
same,MIC,Bacteroides fragilis; Bacteroides fragilis 111,32 µg/mL
same,MIC,Bacteroides fragilis; Bacteroides fragilis 1877,32 µg/mL
same,MIC,Bacteroides fragilis; Bacteroides fragilis 1936B,32 µg/mL
same,MIC,[2]; Bacteroides melaninogenicus 1856/28,> 128 µg/mL
same,MIC,[2]; Bacteroides melaninogenicus 2736,16 µg/mL
same,MIC,[3],1 µg/mL
same,MIC,[4]; Staphylococcus epidermidis 219,1 µg/mL
same,MIC,[4]; Staphylococcus epidermidis 222,1 µg/mL
same,MIC,[4]; Staphylococcus epidermidis 269,2 µg/mL
same,MIC,[4]; Staphylococcus epidermidis 270,2 µg/mL
same,MIC,[4]; Staphylococcus epidermidis 285,2 µg/mL
same,MIC,Staphylococcus aureus; Staphylococcus aureus 3055,0.5 µg/mL
same,MIC,Staphylococcus aureus; Staphylococcus aureus V102,1 µg/mL
same,MIC,Staphylococcus aureus; Staphylococcus aureus V138,1 µg/mL
same,MIC,Staphylococcus aureus; Staphylococcus aureus V140,1 µg/mL
same,MIC,Staphylococcus aureus; Staphylococcus aureus X400,1 µg/mL
same,MIC,[5]; Streptococcus sp. Group D 2041,2 µg/mL
same,MIC,[5]; Streptococcus sp. Group D 2058,4 µg/mL
same,MIC,[5]; Streptococcus sp. Group D 8043,1 µg/mL
same,MIC,[5]; Streptococcus sp. Group D 9901,2 µg/mL
same,MIC,[5]; Streptococcus sp. Group D 9960,4 µg/mL
same,MIC,[5]; Streptococcus sp. Group D 12253F,1 µg/mL
same,MIC,[5]; Streptococcus sp. Group D Mx161,1 µg/mL
same,MIC,[5]; Streptococcus sp. Group D X66,1 µg/mL
same,MIC,Streptococcus pyogenes; Streptococcus pyogenes ATCC 10389,0.5 µg/mL
same,MIC,Streptococcus pyogenes; Streptococcus pyogenes C203,0.5 µg/mL
same,MIC,[6]; Haemophilus parainfluenzae 7901,64 µg/mL
same,MIC,[6]; Haemophilus parainfluenzae 9796,64 µg/mL
same,MIC,Haemophilus influenzae; Haemophilus influenzae 76,64 µg/mL
same,MIC,Haemophilus influenzae; Haemophilus influenzae 312,128 µg/mL
same,MIC,Haemophilus influenzae; Haemophilus influenzae 4842,32 µg/mL
same,MIC,Haemophilus influenzae; Haemophilus influenzae 16836,128 µg/mL
same,MIC,Haemophilus influenzae; Haemophilus influenzae Bond,64 µg/mL
same,MIC,Haemophilus influenzae; Haemophilus influenzae C.L.,32 µg/mL
same,MIC,Haemophilus influenzae; Haemophilus influenzae Mx366,32 µg/mL
same,MIC,Haemophilus influenzae; Haemophilus influenzae Mx371,64 µg/mL
same,MIC,Streptococcus pneumoniae; Streptococcus pneumoniae Bl-438,0.5 µg/mL
same,MIC,Streptococcus pneumoniae; Streptococcus pneumoniae Park I,0.125 µg/mL
same,MIC,[7]; Streptococcus sp. Group B 5,4 µg/mL
same,MIC,[7]; Streptococcus sp. Group B 14,0.5 µg/mL
same,MIC,Fusobacterium symbiosum,2 µg/mL
same,MIC,Clostridium difficile [8],2 µg/mL
same,MIC,Clostridium septicum,1 µg/mL
same,MIC,[9],16 µg/mL
same,MIC,Clostridium difficile [10],2 µg/mL
